Measured values published in PMC9161616, “A first-in-human phase 1/2 study of FGF401 and combination of FGF401 with spartalizumab in patients with hepatocellular carcinoma or biomarker-selected solid tumors” (Journal of Experimental & Clinical Cancer Research : CR, 2022).

How the values were obtained:
[1] = tested on: CYP7A1 and DUSP6 transcript levels in tumor biopsies; experiment: Tumor biopsy RNAseq pharmacodynamics; type: in vivo, human
Protocol: Additionally, exploratory biomarker endpoints to assess FGF19-FGFR4 signaling inhibition by FGF401 included temporal profiling of C4, FGF19, total bile acid and total cholesterol levels in blood, and CYP7A1 and DUSP6 transcript levels in tumor biopsies. An immunohistochemistry (IHC) assay to detect FGF19 was used retrospectively on remnant samples and the association of FGF19 expression levels with best change in sum of diameters (SOD) for RECIST v1.1 in the single-agent was evaluated.
For RNAseq based studies, extracted total RNA was depleted from ribosomal RNA using RNAseH. The rRNA-depleted sample was then prepared for sequencing using the TruSeq RNA v.2 Library Preparation kit (Illumina). After pooling the captured library using unique adapter index sequences and applying the pool to a sequencing flow cell, they were sequenced using Illumina v.4 chemistry and paired-end 100-bp reads. Sequence data were aligned to the reference human genome (build hg19) using STAR v.2.4.0e. Mapped reads were then used to quantify transcripts with HTSeq v.0.6.1p1 [28] and RefSeq GRCh38 v.82 gene annotation. Gene expression data were normalized using the trimmed mean of M-value normalization as implemented in the edgeR – Bioconductor package v.3.20.9 [29].

[2] = tested on: patients with HCC or other solid tumors positive for FGFR4 and KLB; experiment: Phase 1 dose escalation, DLTs, MTD/RP2D, FGF401 single agent; type: in vivo
Protocol: Phase 1: Escalation with overdose control (EWOC) principle based on the observed dose-limiting toxicities (DLTs) was employed while escalating dosage starting with 50 mg until the lowest of MTD and/or RP2D was met. Sample size to have reasonable operating characteristics was estimated to be a minimum of 21 evaluable patients.
To further assess the effect of food uptake on FGF401, additional patients were recruited upon observance of clinical activity to receive doses under fed condition, in parallel with the fasted dose escalation. The starting dose was estimated at 80 mg qd. Principles of dose escalation aligned with those under fasted condition.
The primary endpoint for the phase 1 parts was the incidence of DLTs evaluated. The probability of DLTs during the evaluation period was estimated for patients in the dose determining set (DDS) for each treatment arm, FGF401 single agent and FGF401 + spartalizumab combination, to estimate respective MTDs. DDS for the phase 1 single agent or combination comprised safety set patients who either experienced a DLT or had confirmation by both the sponsor and investigators that no DLT occurred during the first cycle, C1 (first 2 cycles: C1, C2) based on at least 66% of planned doses administered in C1 (C1 and C2) with a minimum of 21 (42) days of observation following the first dose. For phase 2, the primary efficacy endpoint to investigate the antitumor activity of FGF401 included time to tumor progression assessed in groups 1 and 2, and overall response rate (ORR) in group 3 based on local assessment per Response Evaluation Criteria in Solid Tumors (RECIST) v1.1.
For the single-agent phase 1 primary outcome, an extended Bayesian hierarchical logistical regression model (BHLRM) was applied to estimate the relationship between dose and stratum (fasted vs fed) specific probability of a patient experiencing a DLT. […]

[3] = most on-treatment biopsies obtained at C1D8

COCCNc1cc(NC(=O)N2CCCc3cc(CN4CCN(C)CC4=O)c(C=O)nc32)ncc1C#N [FGF401, roblitinib]
CYP7A1 transcript in on-treatment versus pretreatment biopsies [1, 3]: upregulation
DUSP6 transcript in on-treatment versus pretreatment biopsies [1, 3]: downregulation
changes in immune infiltration after FGF401 treatment ([1]; signatures summarized with GSVA): did not observe significant changes
DLT: increase in blood bilirubin ([2]; human, in vivo, 21 days): 2 n
DLT: increase in transaminases ([2]; human, in vivo, 21 days): 4 n
MTD ([2]; single agent, 50 to 150 mg): not reached
